Data taken from ChEMBL document CHEMBL2169810, “Carbamoylphosphonates control tumor cell proliferation and dissemination by simultaneously inhibiting carbonic anhydrase IX and matrix metalloproteinase-2. Toward nontoxic chemotherapy targeting tumor microenvironment” (J Med Chem, 2012).

Legend:
Carbonic anhydrase 12 = Carbonic anhydrase 12 (Homo sapiens, UniProt O43570); assay: Inhibition of human Carbonic anhydrase 12-mediated CO2 hydration by stopped-flow method
Carbonic anhydrase 1 = Carbonic anhydrase 1 (Homo sapiens, UniProt P00915); assay: Inhibition of human Carbonic anhydrase 1-mediated CO2 hydration by stopped-flow method
Carbonic anhydrase 9 = Carbonic anhydrase 9 (Homo sapiens, UniProt Q16790); assay: Inhibition of human Carbonic anhydrase 9-mediated CO2 hydration by stopped-flow method
Carbonic anhydrase 2 = Carbonic anhydrase 2 (Homo sapiens, UniProt P00918); assay: Inhibition of human Carbonic anhydrase 2-mediated CO2 hydration by stopped-flow method
B16-F10 [1] = assay: Antimetastatic activity against mouse B16F10 cells xenografted in C57BL mouse assessed as decrease in lung metastasis at 50 mg/kg, po administered QD measured after 21 days; assay type: functional; set-up: scale not given: the % may be the effect or the level left
B16-F10 [2] = assay: Antimetastatic activity against mouse B16F10 cells xenografted in C57BL mouse assessed as decrease in lung metastasis at 50 mg/kg, ip administered QD measured after 21 days; assay type: functional; set-up: scale not given: the % may be the effect or the level left; settings: route intraperitoneal
HT-1080 [3] = assay: Cytotoxicity against human HT1080 cells assessed as increase in LDH level at 1 uM after 24 hrs in hypoxic condition by spectrophotometric analysis relative to control; assay type: functional
B16-F10 [4] = assay: Antimetastatic activity against mouse B16F10 cells xenografted in C57BL mouse assessed as decrease in lung metastasis at 25 mg/kg, ip administered QD measured after 21 days; assay type: functional; set-up: scale not given: the % may be the effect or the level left; settings: route intraperitoneal
[5] = Volume of distribution at steady state in Sprague-Dawley rat at 33 mg/kg, iv; assay type: ADME, organism-based; set-up: dose 33 mg/kg, route intravenous; settings: in vivo, read-out: Vdss
HeLa [6] = assay: Cytotoxicity against human HeLa cells assessed as increase in LDH level after 24 hrs in hypoxic condition by spectrophotometric analysis relative to control; assay type: functional, cell-based
HT-1080 [7] = assay: Cytotoxicity against human HT1080 cells assessed as increase in LDH level up to 100 uM after 24 hrs in normoxic condition by spectrophotometric analysis relative to control; assay type: cell-based; settings: ht-1080, 24 h
HeLa [8] = assay: Cytotoxicity against human HeLa cells assessed as increase in LDH level up to 100 uM after 24 hrs in normoxic condition by spectrophotometric analysis relative to control; assay type: cell-based
[9] = Half life in Sprague-Dawley rat at 33 mg/kg, iv; assay type: ADME, organism-based; set-up: dose 33 mg/kg, route intravenous; settings: in vivo
B16-F10 [10] = assay: Antimetastatic activity against mouse B16F10 cells xenografted in C57BL mouse assessed as decrease in lung metastasis at 12.5 mg/kg, ip administered QD measured after 21 days; assay type: functional; set-up: scale not given: the % may be the effect or the level left; settings: route intraperitoneal
[11] = target: T1, 72 kDa type IV collagenase (Homo sapiens, UniProt P08253); assay: Inhibition of human recombinant MMP2 measured every 5 mins for 3 hrs
HeLa [12] = assay: Cytotoxicity against human HeLa cells assessed as increase in LDH level at 50 uM after 24 hrs in hypoxic condition by spectrophotometric analysis relative to control; assay type: functional
HT-1080 [13] = assay: Cytotoxicity against human HT1080 cells assessed as increase in LDH level at 10 uM after 24 hrs in hypoxic condition by spectrophotometric analysis relative to control; assay type: functional
Hydroxyapatite = assay: Binding affinity to bone mineral hydroxyapatite at 100 uM after 17 hrs
HT-1080 [14] = assay: Cytotoxicity against human HT1080 cells assessed as increase in LDH level after 24 hrs in hypoxic condition by spectrophotometric analysis relative to control; assay type: functional, cell-based
HT-1080 [15] = assay: Cytotoxicity against human HT1080 cells assessed as increase in LDH level at 50 uM after 24 hrs in hypoxic condition by spectrophotometric analysis relative to control; assay type: functional
[16] = target: T1, 72 kDa type IV collagenase; assay: Inhibition of MMP2

Chain of Carbonic anhydrase 12 (O43570 whole entry): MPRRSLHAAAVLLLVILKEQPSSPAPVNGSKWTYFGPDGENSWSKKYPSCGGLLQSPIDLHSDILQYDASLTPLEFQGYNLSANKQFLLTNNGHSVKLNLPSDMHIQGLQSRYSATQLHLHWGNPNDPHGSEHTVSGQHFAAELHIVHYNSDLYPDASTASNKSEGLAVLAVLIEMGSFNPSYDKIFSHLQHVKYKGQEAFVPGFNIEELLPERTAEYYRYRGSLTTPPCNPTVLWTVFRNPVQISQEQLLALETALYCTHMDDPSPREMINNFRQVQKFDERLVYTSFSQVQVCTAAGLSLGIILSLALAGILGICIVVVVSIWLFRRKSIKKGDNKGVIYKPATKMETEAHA
Chain of Carbonic anhydrase 1 (P00915 whole entry): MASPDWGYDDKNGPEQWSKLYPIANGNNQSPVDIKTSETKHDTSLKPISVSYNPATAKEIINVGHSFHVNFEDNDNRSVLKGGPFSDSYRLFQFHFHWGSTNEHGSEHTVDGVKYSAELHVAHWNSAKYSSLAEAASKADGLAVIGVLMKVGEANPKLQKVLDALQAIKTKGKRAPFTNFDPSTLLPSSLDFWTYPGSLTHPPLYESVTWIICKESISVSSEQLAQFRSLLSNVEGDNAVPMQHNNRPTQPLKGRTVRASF
T1 sequence (P08253 whole entry): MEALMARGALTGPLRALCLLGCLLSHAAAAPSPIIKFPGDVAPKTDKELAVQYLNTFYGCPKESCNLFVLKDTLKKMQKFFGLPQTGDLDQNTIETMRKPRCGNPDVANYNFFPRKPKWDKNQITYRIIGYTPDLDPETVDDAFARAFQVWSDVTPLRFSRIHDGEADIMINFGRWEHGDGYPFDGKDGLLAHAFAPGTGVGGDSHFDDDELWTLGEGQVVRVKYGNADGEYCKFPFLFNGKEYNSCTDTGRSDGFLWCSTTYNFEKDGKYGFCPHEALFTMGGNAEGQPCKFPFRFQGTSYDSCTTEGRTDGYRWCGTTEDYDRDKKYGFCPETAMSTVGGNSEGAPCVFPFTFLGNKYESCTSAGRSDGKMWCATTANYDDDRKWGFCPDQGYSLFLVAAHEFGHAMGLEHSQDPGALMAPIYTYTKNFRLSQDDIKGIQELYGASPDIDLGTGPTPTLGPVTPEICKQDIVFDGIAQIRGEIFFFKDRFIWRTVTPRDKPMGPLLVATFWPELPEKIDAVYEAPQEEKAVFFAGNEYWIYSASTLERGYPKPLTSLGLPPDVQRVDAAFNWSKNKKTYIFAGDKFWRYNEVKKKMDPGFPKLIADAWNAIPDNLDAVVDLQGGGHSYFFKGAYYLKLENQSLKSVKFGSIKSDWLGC

Compound	IC50 (Carbonic anhydrase 12) [µM]	IC50 (Carbonic anhydrase 1) [µM]	IC50 (Carbonic anhydrase 9) [µM]	IC50 (Carbonic anhydrase 2) [µM]	further results
O=C(NCC1CCCCC1)P(=O)(O)O [CYCLOHEXYLMETHYLCARBAMOYLPHOSPHONIC ACID]	7.44	7.36	8.59	9.23	
CCOP(=O)(OCC)C(=O)NCCCCNC(=O)P(=O)(OCC)OCC	2.72	9.7	9.65	9.59	
N[C@H]1CCCC[C@@H]1NC(=O)P(=O)(O)O	8.26	8.24	7.14	8.28	
O=C(NC1CCCC1)P(=O)(O)O [(CYCLOPENTYLAMINO)CARBONYLPHOSPHONIC ACID]	7.26	8.79	8.97	7.41	Activity (B16-F10 [1]): 80%; Activity (B16-F10 [2]): 86%
O=C(NCCN1CCCCC1)P(=O)(O)O	7.64	7.82	9	8.6	
O=C(NCCN1CCCC1)P(=O)(O)O	5.43	9.43	8.8	9.66	
O=C(NCCCCNC(=O)P(=O)(O)O)P(=O)(O)O	6.02	9.74	9.1	8.82	
O=C(NCCCCCNS(=O)(=O)c1ccc(Oc2ccccc2)cc1)P(=O)(O)O	5.7	0.52	6.3	0.31	fold change (FC) (HT-1080 [3]): 1; Activity (B16-F10 [1]): 80%; Activity (B16-F10 [4]): 76%; Activity (B16-F10 [2]): 90%; Vd [5]: 1.65 L/kg; Activity (HeLa [6]): Dose-dependent effect; Activity (HT-1080 [7]): Non-toxic; Activity (HeLa [8]): Non-toxic; half-life [9]: 9 h; Activity (B16-F10 [10]): 57%; IC50 [11]: 4 µM; fold change (FC) (HeLa [12]): 1.3; fold change (FC) (HT-1080 [13]): 1.5; Drug absorption (Hydroxyapatite): 44%; Activity (HT-1080 [14]): Dose-dependent effect; fold change (FC) (HT-1080 [15]): 2.3
O=C(NC1CCCCC1)P(=O)(O)O [(CYCLOHEXYLAMINO)CARBONYLPHOSPHONIC ACID]	5.59	7.89	8.89	8.81	
N[C@@H]1CCCC[C@@H]1NC(=O)P(=O)(O)O	6	1.6	8.6	1.32	
O=C(NCCc1ccccc1)P(=O)(O)O [PHENETHYLCARBAMOYLPHOSPHONIC ACID]	5.44	7.68	6.08	8	
O=C(NCCNS(=O)(=O)c1ccc(Oc2ccccc2)cc1)P(=O)(O)O	6.9	0.98	7	0.82	
CC(C)NC(=O)P(=O)(O)O [(ISOPROPYLAMINO)CARBONYLPHOSPHONIC ACID]	7.27	8.81	8.3	13.9	
C[C@@H](NC(=O)P(=O)(O)O)C1CCCCC1	6.97	6.78	8.12	8.85	
O=C(NC1CCCCCCC1)P(=O)(O)O [(CYCLOOCTYLAMINO)CARBONYLPHOSPHONIC ACID]	7.99	8.02	9.14	7.89	
O=C(NCCCCCCNS(=O)(=O)c1ccc(Oc2ccccc2)cc1)P(=O)(O)O	6.2	0.38	7	0.1	fold change (FC) (HT-1080 [3]): 1; Activity (B16-F10 [1]): 50%; Activity (B16-F10 [4]): 90%; Activity (HeLa [6]): Dose-dependent effect; Activity (HT-1080 [7]): Non-toxic; Activity (HeLa [8]): Non-toxic; Activity (B16-F10 [10]): 82%; IC50 [11]: 4 µM; fold change (FC) (HT-1080 [13]): 1.3; Activity (HT-1080 [14]): Dose-dependent effect; fold change (FC) (HT-1080 [15]): 1.9
C[C@H](NC(=O)P(=O)(O)O)C1CCCCC1	6.64	5.31	6.36	9.45	
O=C(NCCNC(=O)P(=O)(O)O)c1ccc(Oc2ccccc2)cc1	8.6	0.62	9.9	0.61	IC50 [16]: 20 µM
CCC(CC)NC(=O)P(=O)(O)O	4.65	6.71	8.26	8.79	
O=C(NCCCNS(=O)(=O)c1ccc(Oc2ccccc2)cc1)P(=O)(O)O	6.4	0.71	6.8	0.58	
O=C(NCCCCNS(=O)(=O)c1ccc(Oc2ccccc2)cc1)P(=O)(O)O	5.6	0.75	6.1	0.1	
